For 53 compounds, IC50 results are on record in patent US7446195B2, “High affinity thiophene-based and furan-based kinase ligands” (Schering Corporation, priority 2005, dated 2008).

This test concerns the target CDK-2 (Homo sapiens, UniProt P24941). The experiment in a line: CDK-2 inhibition (Table 1; fluorescence polarization displacement assay). As to conditions: inhibitory effectiveness toward CDK-2. The class given is binding. The procedure:
The affinity of lead inhibitors binding to CDK-2 and CDK-2/cyclin A were determined by measuring a Ki value using a fluorescence polarization displacement assay. The deacetylated form of compound BMS-250595 was reacted with Alexa Fluor 647 to generate a compound (BMS-Alexa Fluor647) that bound to both proteins and provided a signal for fluorescence polarization displacement. Binding assays were performed in a 384 well Costar NBS coated plate. A total volume of […] contained concentrations of CDK-2 or CDK-2/cyclin A at […], respectively. The concentration of BMS-Alexa Fluor647 was 50 nM. Serial dilutions of compounds were added to 12 wells. The final buffer concentration was 10 mM Hepes, pH 7.5, 150 mM NaCl, and 1 mM DTT. Samples were incubated at room temperature for 15 minutes and then read in an Analyst HT instrument using an excitation and emission wavelength of 580 and 680 nm, respectively. The […] curve fitting tool described by Zhang et al., 2004 (Zhang R., Mayhood T., Lipari P., Wang Y., Durkin D., Syto R., Gesell J., McNemar C., and Windsor W., Analytical Biochemistry 331 (2004) 138-146)
On the technique in general: Fluorescence polarisation rises when a labelled molecule tumbles more slowly, as on binding a larger partner.

Usually IC50 stands for the midpoint of a concentration-inhibition curve. The low end stands for higher potency, the high end for lower potency. Consider `COc1ccc(NC(=O)c2ccc(C(=O)Nc3ccc(N4CCNCC4)cc3)s2)c(C)c1` [Compound 122], for which the IC50 was at least 40 µM. Compound `COc1ccc(NC(=O)c2ccc(C(=O)Nc3ccc(N4CCN(C)CC4)cc3)s2)c(C)c1` [Compound 123] came in with an IC50 of at least 40 µM.

With `COc1ccc(NC(=O)c2ccc(C(=O)Nc3ccc(N(C)C)cc3)s2)c(C)c1` [Compound 124], the IC50 is at least 40 µM.

On to `COc1ccc(NC(=O)c2ccc(C(=O)Nc3ccc(OCCN(C)C)cc3)s2)c(C)c1` [Compound 125], for which the IC50 was at least 40 µM. In the case of `COC(=O)c1ccc(NC(=O)c2ccc(C(=O)Nc3ccc(OC)cc3C)s2)cc1` [Compound 126], the IC50 is at least 40 µM. `COc1ccc(NC(=O)c2ccc(C(=O)Nc3ccc(-c4csnn4)cc3)s2)c(C)c1` [Compound 127] gave an IC50 of at least 40 µM.

Regarding `COc1ccc(NC(=O)c2ccc(C(=O)Nc3ccc(-n4cccn4)cc3)s2)c(C)c1` [Compound 129], the IC50 was at least 40 µM. Under `COc1ccc(NC(=O)c2ccc(C(=O)Nc3ccc4c(c3)OCO4)s2)c(C)c1` [Compound 130] stands at least 40 µM; under `COc1ccc(NC(=O)c2ccc(C(=O)Nc3ccc(-c4cnco4)cc3)s2)c(C)c1` [Compound 131], at least 40 µM; under `COc1ccc(NC(=O)c2ccc(C(=O)Nc3ccc(CN)cc3)s2)c(C)c1` [Compound 132], at least 40 µM. With `COc1ccc(NC(=O)c2ccc(C(=O)Nc3ccc(N4CCOCC4)nc3)s2)c(C)c1` [Compound 133] the figure was at least 40 µM; with `COc1ccc(NC(=O)c2ccc(C(=O)Nc3cccc(-c4cnco4)c3)s2)c(C)c1` [Compound 134], at least 40 µM. On to `C[C@H](O)CNC(=O)c1ccc(C(=O)Nc2ccc(-n3cncn3)cc2)s1` [Compound 135], for which the IC50 was at least 40 µM. On to `O=C(Nc1ccc(-n2cncn2)cc1)c1ccc(C(=O)N[C@@H]2CCNC2)s1` [Compound 136], for which the IC50 is at least 40 µM.

The compound `CN1CCN(C(=O)c2ccc(C(=O)Nc3ccc(-n4cncn4)cc3)s2)CC1` [Compound 137] gave an IC50 of at least 40 µM. With `O=C(NC[C@@H]1CCNC1)c1ccc(C(=O)Nc2ccc(-n3cncn3)cc2)s1` [Compound 138], the 50% inhibitory concentration (IC50) is at least 40 µM.

Consider `O=C(Nc1ccc(-n2cncn2)cc1)c1ccc(C(=O)NC2CCNCC2)s1` [Compound 139], for which the IC50 is at least 40 µM. Compound `CN(C)CCCNC(=O)c1ccc(C(=O)Nc2ccc(-n3cncn3)cc2)s1` [Compound 140] came in with an IC50 of at least 40 µM. The compound `CN1CCC(NC(=O)c2ccc(C(=O)Nc3ccc(-n4cncn4)cc3)s2)CC1` [Compound 141] yielded a 50% inhibitory concentration (IC50) of at least 40 µM. For the compound `Cc1cc(NC(=O)c2ccc(C(=O)Nc3ccc(-n4cncn4)cc3)s2)ccc1F` [Compound 142], the IC50 was at least 40 µM. `Cn1cnc(CCNC(=O)c2ccc(C(=O)Nc3ccc(-n4cncn4)cc3)s2)c1` [Compound 143] displayed an IC50 of at least 40 µM. `O=C(NCCN1CCCCC1)c1ccc(C(=O)Nc2ccc(-n3cncn3)cc2)s1` [Compound 144] had an IC50 of at least 40 µM. With `CN1CCCC1CCNC(=O)c1ccc(C(=O)Nc2ccc(-n3cncn3)cc2)s1` (centres unmarked) [Compound 145] the figure was at least 40 µM; with `O=C(NCCN1CCNC1=O)c1ccc(C(=O)Nc2ccc(-n3cncn3)cc2)s1` [Compound 146], at least 40 µM. With `O=C(NCCN1CCOCC1)c1ccc(C(=O)Nc2ccc(-n3cncn3)cc2)s1` [Compound 147] the figure was at least 40 µM; with `O=C(Nc1ccc(-n2cncn2)cc1)c1ccc(C(=O)Nc2ccc3c(c2)OCO3)s1` [Compound 148], at least 40 µM; with `COc1ccc(NC(=O)c2ccc(C(=O)Nc3ccc(-n4cncn4)cc3)s2)cc1F` [Compound 149], at least 40 µM. Compound `O=C(Nc1ccc(-n2cncn2)cc1)c1ccc(C(=O)N2CCCC2c2cccnc2)s1` (centres unmarked) [Compound 150] displayed a 50% inhibitory concentration (IC50) of at least 40 µM. With `COc1ccc(NC(=O)c2ccc(C(=O)Nc3ccc(-n4cncn4)cc3)s2)cc1OC` [Compound 151] the figure was at least 40 µM; with `O=C(Nc1ccc(-n2cncn2)cc1)c1ccc(C(=O)N2CCN(C3CCCC3)CC2)s1` [Compound 152], at least 40 µM; with `CC(C)[C@@H](CO)NC(=O)c1ccc(C(=O)Nc2ccc(-n3cncn3)cc2)s1` [Compound 153], at least 40 µM. Under `O=C(NC[C@H](O)c1ccccc1)c1ccc(C(=O)Nc2ccc(-n3cncn3)cc2)s1` [Compound 154] stands at least 40 µM. In turn, `Cc1cnc(NC(=O)c2ccc(C(=O)Nc3ccc(-n4cncn4)cc3)s2)s1` [Compound 155] had an IC50 of at least 40 µM. `O=C(NCCc1ccccn1)c1ccc(C(=O)Nc2ccc(-n3cncn3)cc2)s1` [Compound 156] had an IC50 of at least 40 µM. For `COc1cccc(NC(=O)c2ccc(C(=O)Nc3ccc(-n4cncn4)cc3)s2)c1` [Compound 157], the IC50 was at least 40 µM.

`O=C(NCc1nc2ccccc2[nH]1)c1ccc(C(=O)Nc2ccc(-n3cncn3)cc2)s1` [Compound 158]: the IC50 was at least 40 µM. In turn, `Cn1c(NC(=O)c2ccc(C(=O)Nc3ccc(-n4cncn4)cc3)s2)nc2ccccc21` [Compound 159] came in with an IC50 of at least 40 µM. With `O=C(Nc1ccc(-n2cncn2)cc1)c1ccc(C(=O)Nc2ccc3c(c2)C(=O)OC3)s1` [Compound 160], the IC50 is at least 40 µM.

`O=C(Nc1ccc(-n2cncn2)cc1)c1ccc(C(=O)Nc2ccc3ncsc3c2)s1` [Compound 161] came in with an IC50 of at least 40 µM. As for `O=C(Nc1ccc(-n2cncn2)cc1)c1ccc(C(=O)Nc2cccc(-c3cnco3)c2)s1` [Compound 162], the IC50 was at least 40 µM. `O=C(Nc1ccc(-n2cncn2)cc1)c1ccc(C(=O)Nc2cccc(O)c2)s1` [Compound 163] showed an IC50 of at least 40 µM. In turn, `Nc1ccc(CNC(=O)c2ccc(C(=O)Nc3ccc(-n4cncn4)cc3)s2)cn1` [Compound 164] displayed an IC50 of at least 40 µM. Under `O=C(Nc1ccc(-n2cncn2)cc1)c1ccc(C(=O)Nc2ccccc2Cl)s1` [Compound 165] stands at least 40 µM. Compound `O=C(Nc1ccc(-n2cncn2)cc1)c1ccc(C(=O)Nc2cc(F)ccc2F)s1` [Compound 166] showed an IC50 of at least 40 µM. The compound `COc1ccc(NC(=O)c2ccc(C(=O)Nc3ccc(-n4cncn4)cc3)s2)cc1O` [Compound 167] gave an IC50 of at least 40 µM. `COc1ccc(NC(=O)c2ccc(C(=O)Nc3ccc(-c4c(C)noc4C)cc3)s2)c(C)c1` [Compound 168] registered an IC50 of at least 40 µM. Turning to `COc1ccc(NC(=O)c2ccc(C(=O)Nc3ccc4ncccc4c3)s2)c(C)c1` [Compound 169], the 50% inhibitory concentration (IC50) was at least 40 µM. For `COc1ccc(NC(=O)c2ccc(C(=O)Nc3ccc4nc(C)ccc4c3)s2)c(C)c1` [Compound 170], the concentration for half-maximal inhibition (IC50) was at least 40 µM. Under `COc1ccc(NC(=O)c2ccc(C(=O)Nc3ccc4c(cnn4C)c3)s2)c(C)c1` [Compound 171] stands at least 40 µM; under `COc1ccc(NC(=O)c2ccc(C(=O)Nc3ccc4nccnc4c3)s2)c(C)c1` [Compound 172], at least 40 µM; under `COc1ccc(NC(=O)c2ccc(C(=O)Nc3ccc4scnc4c3)s2)c(C)c1` [Compound 173], at least 40 µM. With `COc1ccc(NC(=O)c2ccc(C(=O)Nc3ccc4sc(SC)nc4c3)s2)c(C)c1` [Compound 174] the figure was at least 40 µM.

`COc1ccc(NC(=O)c2ccc(C(=O)Nc3ccc(C#N)cc3)s2)c(C)c1` [Compound 175] came in with an IC50 of at least 40 µM.
